IC50 data for ten compounds are collected here from US20230092890A1, “1, 3, 4-Oxadiazole derivative compounds as histone deacetylase 6 inhibitor, and the pharmaceutical composition comprising the same” (Chong Kun Dang Pharmaceutical Corp., priority 2019, published 2023).

Some results are limits rather than exact numbers.

A word on the IC50: it is the concentration that gives 50% inhibition.

One assay has as its target T1, HDAC6 human recombinant (Homo sapiens, UniProt Q9UBN7).
T1 construct: purchased Calbiochem 382180
T1 sequence (Q9UBN7 1-1215): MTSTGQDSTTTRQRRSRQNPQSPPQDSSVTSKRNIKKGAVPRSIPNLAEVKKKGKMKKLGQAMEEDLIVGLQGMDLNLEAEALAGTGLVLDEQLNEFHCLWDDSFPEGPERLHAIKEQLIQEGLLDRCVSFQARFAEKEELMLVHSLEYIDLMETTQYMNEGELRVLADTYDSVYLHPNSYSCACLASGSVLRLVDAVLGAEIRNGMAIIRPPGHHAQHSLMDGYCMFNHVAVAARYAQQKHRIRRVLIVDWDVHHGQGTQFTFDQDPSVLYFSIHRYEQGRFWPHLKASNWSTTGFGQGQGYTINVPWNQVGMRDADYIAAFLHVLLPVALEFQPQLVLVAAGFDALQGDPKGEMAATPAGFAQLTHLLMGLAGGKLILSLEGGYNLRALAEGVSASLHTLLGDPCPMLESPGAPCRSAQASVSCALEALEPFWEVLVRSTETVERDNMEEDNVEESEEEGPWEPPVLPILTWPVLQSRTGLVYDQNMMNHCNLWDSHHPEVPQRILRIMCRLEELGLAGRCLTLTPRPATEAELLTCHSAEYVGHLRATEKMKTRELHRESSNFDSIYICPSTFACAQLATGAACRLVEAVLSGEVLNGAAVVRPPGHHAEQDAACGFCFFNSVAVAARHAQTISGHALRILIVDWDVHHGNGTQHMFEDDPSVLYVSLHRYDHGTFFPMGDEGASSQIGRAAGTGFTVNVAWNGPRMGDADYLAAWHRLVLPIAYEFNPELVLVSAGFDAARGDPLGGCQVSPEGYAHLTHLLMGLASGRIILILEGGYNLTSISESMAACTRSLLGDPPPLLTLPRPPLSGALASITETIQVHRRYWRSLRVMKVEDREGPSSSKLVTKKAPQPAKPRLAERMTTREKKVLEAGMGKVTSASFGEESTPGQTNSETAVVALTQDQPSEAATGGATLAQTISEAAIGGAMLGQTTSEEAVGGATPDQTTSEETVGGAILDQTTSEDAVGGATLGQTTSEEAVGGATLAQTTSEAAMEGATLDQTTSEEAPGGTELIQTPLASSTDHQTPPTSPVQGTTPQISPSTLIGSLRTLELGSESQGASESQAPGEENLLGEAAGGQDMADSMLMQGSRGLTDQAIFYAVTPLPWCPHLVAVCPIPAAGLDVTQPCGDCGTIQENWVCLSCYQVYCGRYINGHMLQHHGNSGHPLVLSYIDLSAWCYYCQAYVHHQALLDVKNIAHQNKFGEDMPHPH
The experiment in a line: HDAC enzyme activity inhibition (in vitro), HDAC6 assay. The format is biochemical. Conditions: samples at 0.1, 1, 10, 100 and 1000 nM; 37° C. 60 minutes; fluorescence Ex 390, Em 460; read-out: HDAC6 IC50. Put shortly:
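HDAC6 human recombinant enzyme with fluorimetric substrate; […]. Reaction 60 min at 37° C, then developer 30 min at 37° C; fluorescence read at Ex 390/Em 460.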

For a further assay, the target named is T2, HDAC1 (Homo sapiens, UniProt Q13547).
T2 construct: purchased Enzolifesciences BML-AK511
T2 sequence (Q13547 whole entry): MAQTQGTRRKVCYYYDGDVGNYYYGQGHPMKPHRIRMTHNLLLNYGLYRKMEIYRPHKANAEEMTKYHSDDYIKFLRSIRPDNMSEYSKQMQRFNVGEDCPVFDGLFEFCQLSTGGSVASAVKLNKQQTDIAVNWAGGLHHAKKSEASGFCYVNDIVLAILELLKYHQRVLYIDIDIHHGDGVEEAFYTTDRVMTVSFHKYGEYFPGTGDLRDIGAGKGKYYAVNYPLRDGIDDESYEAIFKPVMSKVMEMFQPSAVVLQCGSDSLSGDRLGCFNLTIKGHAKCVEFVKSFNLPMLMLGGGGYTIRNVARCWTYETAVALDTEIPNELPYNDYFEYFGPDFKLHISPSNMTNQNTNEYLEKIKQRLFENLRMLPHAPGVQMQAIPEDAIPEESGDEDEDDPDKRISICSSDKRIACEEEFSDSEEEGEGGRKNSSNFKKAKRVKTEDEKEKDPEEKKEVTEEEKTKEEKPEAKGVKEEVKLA
The experiment in a line: HDAC enzyme activity inhibition (in vitro), HDAC1 Fluorimetric Drug Discovery Assay Kit. The format is biochemical. Particulars: samples at 100, 1000 and 10000 nM; 37° C. 60 minutes; fluorescence Ex 390, Em 460; read-out: HDAC1 IC50. The method in brief:
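HDAC1 was tested at 100, 1000 and 10000 nM and recombinant human HDAC6 at 0.1, 1, 10, 100 and 1000 nM. Enzyme reactions ran 60 min at 37° C, then developer was added for 30 min at 37° C, and fluorescence (Ex 390, Em 460) was read.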

Consider `COC(=O)N1CCC(n2c(=O)n(Cc3ccc(-c4nnc(C(F)F)o4)cn3)c3cc(F)ccc32)CC1` [Compound 68, Methyl 4-(3-((5-(5-(difluoromethyl)-1,3,4-oxadiazole-2-yl)pyridine-2-yl)methyl)-5-fluoro-2-oxo-2,3-dihydro-1H-benzo[d]imidazole-1-yl)piperidine-1-carboxylate], for which the IC50 was 34 nM at HDAC6 human recombinant and above 10000 nM on HDAC1.
`CN1CCC(n2c(=O)n(Cc3ccc(-c4nnc(C(F)F)o4)cc3F)c3cc(F)ccc32)CC1` [Compound 69, 3-(4-(5-(difluoromethyl)-1,3,4-oxadiazole-2-yl)-2-fluorobenzyl)-5-fluoro-1-(1-methylpiperidine-4-yl)-1,3-dihydro-2H-benzo[d]imidazole-2-one]: the values for the half-maximal inhibitory concentration (IC50) at HDAC6 human recombinant and on HDAC1 were 28 nM and above 10000 nM, respectively.
As for `CC(C)N1CCC(n2c(=O)n(Cc3ccc(-c4nnc(C(F)F)o4)cc3F)c3cc(F)ccc32)CC1` [Compound 70, 3-(4-(5-(difluoromethyl)-1,3,4-oxadiazole-2-yl)-2-fluorobenzyl)-5-fluoro-1-(1-isopropylpiperidine-4-yl)-1,3-dihydro-2H-benzo[d]imidazole-2-one], the IC50 on HDAC6 human recombinant is 31 nM; on HDAC1 it was above 10000 nM.
Turning to `O=c1n(Cc2ccc(-c3nnc(C(F)F)o3)cc2F)c2cc(F)ccc2n1C1CCN(C2COC2)CC1` [Compound 71, 3-(4-(5-(difluoromethyl)-1,3,4-oxadiazole-2-yl)-2-fluorobenzyl)-5-fluoro-1-(1-(oxetan-3-yl)piperidine-4-yl)-1,3-dihydro-2H-benzo[d]imidazole-2-one], the values for the half-maximal inhibitory concentration (IC50) on HDAC6 human recombinant and on HDAC1 were 19 nM and above 10000 nM, respectively.
For `O=c1n(Cc2ccc(-c3nnc(C(F)F)o3)cc2F)c2cc(F)ccc2n1C1CCN(C2CCOCC2)CC1` [Compound 72, 3-(4-(5-(difluoromethyl)-1,3,4-oxadiazole-2-yl)-2-fluorobenzyl)-5-fluoro-1-(1-(tetrahydro-2H-pyran-4-yl)piperidine-4-yl)-1,3-dihydro-2H-benzo[d]imidazole-2-one] the same measures were 26 nM and above 10000 nM.
With `O=c1n(Cc2ccc(-c3nnc(C(F)F)o3)cc2F)c2cc(F)ccc2n1C1CCN(C2CCSCC2)CC1` [Compound 73, 3-(4-(5-(difluoromethyl)-1,3,4-oxadiazole-2-yl)-2-fluorobenzyl)-5-fluoro-1-(1-(tetrahydro-2H-thiopyran-4-yl)piperidine-4-yl)-1,3-dihydro-2H-benzo[d]imidazole-2-one], the half-inhibitory concentration (IC50) on HDAC6 human recombinant was 80 nM; on HDAC1, above 10000 nM.
For `O=c1n(Cc2ccc(-c3nnc(C(F)F)o3)cc2F)c2cc(F)ccc2n1C1CCN(C2CCC2)CC1` [Compound 74, 1-(1-cyclobutylpiperidine-4-yl)-3-(4-(5-(difluoromethyl)-1,3,4-oxadiazole-2-yl)-2-fluorobenzyl)-5-fluoro-1,3-dihydro-2H-benzo[d]imidazole-2-one] the same measures were 70 nM and above 10000 nM.
For `CC(=O)N1CCC(n2c(=O)n(Cc3ccc(-c4nnc(C(F)F)o4)cc3F)c3cc(F)ccc32)CC1` [Compound 75] the same measures were 46 nM and above 10000 nM.
Consider `CN1CCC(n2c(=O)n(Cc3ccc(-c4nnc(C(F)F)o4)cn3)c3c(F)cccc32)CC1` [Compound 76, 3-((5-(5-(difluoromethyl)-1,3,4-oxadiazole-2-yl)pyridine-2-yl)methyl)-4-fluoro-1-(1-methylpiperidine-4-yl)-1,3-dihydro-2H-benzo[d]imidazole-2-one], for which the IC50 on HDAC6 human recombinant was 31 nM; at HDAC1, above 10000 nM.
Consider `O=c1n(Cc2ccc(-c3nnc(C(F)F)o3)cn2)c2c(F)cccc2n1C1CCN(C2COC2)CC1` [Compound 77, 3-((5-(5-(difluoromethyl)-1,3,4-oxadiazole-2-yl)pyridine-2-yl)methyl)-4-fluoro-1-(1-(oxetan-3-yl)piperidine-4-yl)-1,3-dihydro-2H-benzo[d]imidazole-2-one], for which the IC50 was 35 nM at HDAC6 human recombinant and above 10000 nM at HDAC1.
